This is an account of results in US20080033018A1, “Therapeutic Agents For Overactive Bladder” (Chugai Seiyaku Kabushiki Kaisha, priority 2004, published 2008).

The test system of series [1] is nNOS-Knockout mice. Put plainly: Urination dynamics (urination frequency, urination volume) in nNOS-Knockout mice, observation system for urination behavior. It counts as in vivo. From the text:
There has been established no animal models of disease reflecting frequent urination in elderly male subjects. In carefully searching various kinds of information, nNOS-Knockout mice were pointed out to have a possibility as a model of frequent urination (dilatation of urinary bladder, hyperplasia of smooth muscle, lack of relaxation responses, see Non-patent Document 9 for its creation) in May, 1997 (Non-patent Document 10), but have not been studied as a therapeutic model. nNOS-Knockout mice have now been investigated for their possibility as a model of frequent urination by using an instrument (an observation system for urination behavior, Muromachi Kikai Co., Ltd., Japan) to determine urination dynamics (urination volume and urination frequency) of the mice. […]
Nicorandil was given to nNOS-Knockout mice (8-13 months of age) by forced oral administration at 6 mg/kg/day for 7 days using a sound for oral administration. […]
The daily urination frequency was measured with an observation system for urination behavior (Muromachi Kikai Co., Ltd., Japan). […]
Furthermore, with the aim of clarifying the contribution of the nicorandil's nitrate-like action, pinacidil (SIGMA) known as a pure and potent KATP channel opener was also used for comparison of the urination frequency (FIG. 2).

Series [2] has as its system non-anesthetized conscious rats. Put plainly: Hypotensive effect (blood pressure) in non-anesthetized conscious rats after oral administration. It counts as in vivo, rat. Particulars: compared at a dosage causing a 20 mmHg reduction in blood pressure, FIG. 4.
Source text: In view of this fact, to study a hypotensive effect regarded as a side effect in the amelioration of frequent urination, both drugs were compared for their effect on blood pressure when orally administrated to non-anesthetized conscious rats (“non-anesthetized conscious rat” as used herein refers to an animal pre-treated such that a catheter for blood pressure measurement is inserted and placed in its femoral artery under anesthesia to ensure blood pressure monitoring, which animal is used on the following day after the anesthesia wears off). […] The measurement of blood pressure was performed as follows: the catheter for blood pressure measurement was connected to a blood pressure transducer (Nihon Kohden Corporation, Japan) and input into a polygraph (Nihon Kohden Corporation, Japan).
Series [3] deals with nNOS-Knockout mice. As to the kind of experiment: Daily urination volume in nNOS-Knockout mice (oliguria). It counts as in vivo. To be noted: nNOS-Knockout mice 12-16 weeks, 1 mg/kg, 24 hours after administration, p<0.05.
The test system of series [4] is KATP channel. To be noted: report, Non-patent Document 7; cited from earlier work.
Series [5] has as its system urethral obstruction rats. As to the kind of experiment: Urination frequency after water loading in rat urethral obstruction model. It counts as in vivo. Particulars: over 210 minutes. From the text: As described above, there are many causes that induce frequent urination, and dysuria-induced frequent urination is also known. A rat animal model of urethral obstruction has been reported as a model for efficacy verification of many ameliorating agents for frequent urination (Non-patent Documents 17 and 18). In this example, a midline incision was made in the lower quadrant of each rat (9 weeks of age) under pentobarbital anesthesia, and the proximal urethra was ligatured together with a stainless rod (φ1 mm) by using a 3-0 silk suture, followed by pulling out the rod to create a urethral obstruction model. At 45 days after urethral obstruction, the rats were subjected to water loading (30 ml/kg, po; “water loading” as used herein refers to forced oral administration of distilled water using a sound) and observed for their urination frequency over 210 minutes, such that animals having a urination frequency greater than that of normal animals (5 times) were selected as animals with frequent urination. These animals were administered orally with nicorandil (1 mg/kg) or KRN2391 (1 mg/kg) (dissolved in distilled water for water loading) and then observed for their urination frequency over 210 minutes (n=5 for each group).

The test system of series [6] is urethral obstruction rats. Particulars: rat, in vivo, po, 1 mg/kg. The protocol: “Urinary retention” as used herein refers to a state where the urination volume is 3 hr=0.
Rats at 45 days after urethral obstruction (φ1 mm, urethra was obstructed in rats at 9 weeks of age) were administered orally with nicorandil (3 mg/kg) or KRN2391 (1 mg/kg), subjected to water loading (30 ml/kg, po) and then monitored for their urination volume over 180 minutes (n=10 for each group).

The mark [7] stands for this setting: Enarmon-depot 3.6 mg/kg/day, sc, 7 days, n=5, vs control group (n=8), p<0.05.

As for `CC(N/C(=N\C#N)Nc1ccncc1)C(C)(C)C` (stereo not shown) [pinacidil], the urination frequency entry in series [1] (oral 0.3 mg/kg (dose strongly affecting the mouse cardiovascular system), FIG. 2) is reported as “no significant decrease”.
In the case of `CCCCCCC(=O)O[C@H]1CC[C@H]2[C@@H]3CCC4=CC(=O)CC[C@]4(C)[C@H]3CC[C@]12C` [testosterone, testosterone enanthate], the daily urination volume entry in series [1] (Enarmon-depot 3.6 mg/kg/day, sc, 7 days, n=5, vs control group (n=8)) is “no change”. Further, in series [1] (setting [7]), the single urination volume result is reported as “significant increase” and the urination frequency entry is on record as “significant decrease”.
As to `N#CNC(=NCCO[N+](=O)[O-])c1cccnc1` [KRN2391], the “effect on daily urination frequency (ameliorating effect on urination)” value in series [1] (1 mg/kg, p<0.05, FIG. 2) is listed as “significant ameliorating effect”. For the same compound, the “amount producing hypotensive effect, smaller than nicorandil” value in series [2] amounted to 10 fold. Also, the “effect on daily urination volume” value in series [3] was “significant inhibitory effect”. The “hypotensive effect due to KATP channel opening action, stronger than that of nicorandil” value in series [4] is 25 fold. The “reduction of urination frequency” value in series [5] (1 mg/kg po, vs before administration) is given as 34.3%. Further, the “urination frequency after administration” value in series [5] (45 days after obstruction, 1 mg/kg po with water loading 30 ml/kg, n=5, p<0.05) is listed as 2.4±0.8 times/210 minutes. Moreover, in series [6], the “number of animals without urination” value stood at 5 animals, the urinary retention entry is reported as “a state of urinary retention was observed” and the urination volume amounted to 0.50 ± 0.30 mL.
